Reference: patent publication US20230407243A1, “GENETIC PLATFORM TO INVESTIGATE THE FUNCTIONS OF BACTERIAL DRUG EFFLUX PUMPS” (priority 2022, published 2023)

What was measured:
Assay type in all cases: cell-based, Escherichia coli
EKO-35 araC::macAB Pore = assay: MIC susceptibility profiling, porinated efflux platform
In short: (§1)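 E. coli strains carrying a genomically integrated constitutive fhuA ΔC/Δ4L pore were grown 18 h in LB at 37 °C, then diluted 1/2000 in MHB II from OD600 ~1.0. Compounds were tested in duplicate, 2-fold serial titration, for 18 h at 37 °C with shaking. MIC came from OD600 with the pre-incubation background subtracted.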

EKO-35 araC::mdtBC Pore = assay: as above
In short: as §1

[1] = system: EKO-35 araC::acrBD408A Pore; assay: as above
In short: as §1

EKO-35 araC::acrB Pore = assay: as above
In short: as §1

EKO-35 araC::mdtEF Pore = assay: as above
In short: as §1

EKO-35 araC::emrKY Pore = assay: as above
In short: as §1

EKO-35 araC::acrD Pore = assay: as above
In short: as §1

EKO-35 araC::mexCD Pore = assay: as above
In short: as §1

EKO-35 araC::acrEF Pore = assay: as above
In short: as §1

EKO-35 araC::emrAB Pore = assay: as above
In short: as §1

EKO-35-Pore = assay: MIC susceptibility profiling, porinated strain
In short: as §1

ΔtolC-Pore = assay: microbe, parasite or virus in culture; conditions: technical duplicate
In short: as §1

wild-type (WT) K-12-Pore = assay: microbe, parasite or virus in culture; conditions: technical duplicate
In short: as §1

[2] = system: wild-type E. coli K-12 str. BW25113; assay: microbe, parasite or virus in culture; conditions: technical duplicate
In short: (§2)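 Overnight LB cultures resuspended in PBS to OD600 ~1.0, diluted 1/2000 into MHB II, and added to 2-fold serial compound dilutions in duplicate with DMSO controls. Incubated 18 h at 37° C. with 900 rpm shaking; OD600 read before and after, background subtracted, to derive MIC.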

E. coli EKO-35 = assay: microbe, parasite or virus in culture
In short: as §2

E. coli ΔtolC = assay: microbe, parasite or virus in culture; conditions: technical duplicate
In short: as §2

EKO-35 araC::acrEF = assay: MIC susceptibility profiling, efflux platform
In short: as §2

EKO-35 araC::emrAB = assay: MIC susceptibility profiling, efflux platform
In short: as §2

EKO-35 araC::macAB = assay: MIC susceptibility profiling, efflux platform
In short: as §2

[3] = Table 14A, porinated, technical duplicate
[4] = Table 13A, non-porinated, technical duplicate
[5] = Table 13B, non-porinated, technical duplicate

Structure (SMILES): N#CC(=NNc1cccc(C(F)(F)F)c1)C(=O)c1ccsc1 [compound 3]
- Fold changes of MICs (EKO-35 araC::macAB Pore; EKO-35 araC::macAB Pore compared to EKO-35-Pore): 1 fold
- Minimum inhibitory concentration (EKO-35 araC::macAB Pore; EKO-35 araC::macAB Pore, technical duplicate): 320 µg/mL
- Fold changes of MICs (EKO-35 araC::mdtBC Pore; EKO-35 araC::mdtBC Pore compared to EKO-35-Pore): 1 fold
- Minimum inhibitory concentration (EKO-35 araC::mdtBC Pore; EKO-35 araC::mdtBC Pore, technical duplicate): 320 µg/mL
- Fold changes of MICs ([1]; EKO-35 araC::acrBD408A Pore compared to EKO-35-Pore): 1 fold
- Minimum inhibitory concentration ([1]; EKO-35 araC::acrBD408A Pore, technical duplicate): 320 µg/mL
- Fold changes of MICs (EKO-35 araC::acrB Pore; EKO-35 araC::acr-B Pore compared to EKO-35-Pore): 1 fold
- Minimum inhibitory concentration, EKO-35 araC::acrB Pore (EKO-35 araC::acrB Pore; [3]): 320 µg/mL
- Fold changes of MICs (EKO-35 araC::mdtEF Pore; EKO-35 araC::mdtEF Pore compared to EKO-35-Pore): 1 fold
- Minimum inhibitory concentration, EKO-35 araC::mdtEF Pore (EKO-35 araC::mdtEF Pore; [3]): 320 µg/mL
- Fold changes of MICs (EKO-35 araC::emrKY Pore; EKO-35 araC::emrKY Pore compared to EKO-35-Pore): 1 fold
- Minimum inhibitory concentration (EKO-35 araC::emrKY Pore; EKO-35 araC::emrKY Pore, technical duplicate): 320 µg/mL
- Fold changes of MICs (EKO-35 araC::acrD Pore; EKO-35 araC::acrD Pore compared to EKO-35-Pore): 1 fold
- Minimum inhibitory concentration, EKO-35 araC::acrD Pore (EKO-35 araC::acrD Pore; [3]): 320 µg/mL
- Fold changes of MICs (EKO-35 araC::mexCD Pore; EKO-35 araC::mexCD Pore compared to EKO-35-Pore): 1 fold
- Minimum inhibitory concentration (EKO-35 araC::mexCD Pore; EKO-35 araC::mexCD Pore, technical duplicate): 320 µg/mL
- Fold changes of MICs (EKO-35 araC::acrEF Pore; EKO-35 araC::acrEF Pore compared to EKO-35-Pore): 1 fold
- Minimum inhibitory concentration, EKO-35 araC::acrEF Pore (EKO-35 araC::acrEF Pore; [3]): 320 µg/mL
- Fold changes of MICs (EKO-35 araC::emrAB Pore; EKO-35 araC::emrAB Pore compared to EKO-35-Pore): 1 fold
- Minimum inhibitory concentration (EKO-35 araC::emrAB Pore; EKO-35 araC::emrAB Pore, technical duplicate): 320 µg/mL
- Fold changes of MICs (EKO-35-Pore; EKO-35-Pore compared to EKO-35-Pore (reference)): 1 fold
- Minimum inhibitory concentration (MIC), Pore EKO-35 (EKO-35-Pore; Table 10, with pore, technical duplicate): 320 µg/mL
- Minimum inhibitory concentration, EKO-35-Pore (EKO-35-Pore; [3]): 320 µg/mL
- Minimum inhibitory concentration (MIC), Pore ΔtolC (ΔtolC-Pore; Table 10, with pore): 1.25 µg/mL
- Minimum inhibitory concentration, ΔtolC-Pore (ΔtolC-Pore; Table 14A, porinated): 1.25 µg/mL
- Minimum inhibitory concentration (MIC), Pore K-12 (wild-type (WT) K-12-Pore; Table 10, with pore): 320 µg/mL
- Minimum inhibitory concentration, K-12 (WT)-Pore (wild-type (WT) K-12-Pore; Table 14A, porinated): 320 µg/mL
- Minimum inhibitory concentration (MIC), K-12 ([2]; Table 10, without pore): 320 µg/mL
- Minimum Inhibitory Concentration, K-12 ([2]; Table 13A, non-porinated): 320 µg/mL
- Fold change of MICs (E. coli EKO-35; EKO-35 compared to EKO-35 (reference)): 1 fold
- Minimum inhibitory concentration (MIC), EKO-35 (E. coli EKO-35; Table 10, without pore, technical duplicate): 320 µg/mL
- Minimum Inhibitory Concentration, EKO-35 (E. coli EKO-35; [4]): 320 µg/mL
- Minimum inhibitory concentration (MIC), ΔtolC (E. coli ΔtolC; Table 10, without pore): 2.5 µg/mL
- Minimum Inhibitory Concentration, ΔtolC (E. coli ΔtolC; Table 13A, non-porinated): 2.5 µg/mL
- Fold change of MICs (EKO-35 araC::acrEF; EKO-35 araC::acrEF compared to EKO-35): 1 fold
- Minimum Inhibitory Concentration, EKO-35 araC::acrEF (EKO-35 araC::acrEF; [4]): 320 µg/mL
- Fold change of MICs (EKO-35 araC::emrAB; EKO-35 araC::emrAB compared to EKO-35): 1 fold
- Minimum Inhibitory Concentration, EKO-35 araC::emrAB (EKO-35 araC::emrAB; [5]): 320 µg/mL
- Fold change of MICs (EKO-35 araC::macAB; EKO-35 araC::macAB compared to EKO-35): 1 fold
- Minimum Inhibitory Concentration, EKO-35 araC::macAB (EKO-35 araC::macAB; [5]): 320 µg/mL
